Reference: patent US4199598A, “Method of treating noradrenaline dysfunction or for dopamine-β-hydroxylase inhibition” (Richter Gedeon Vegyeszeti Gyar Rt., priority 1976, dated 1980)

Assays:
[1] = system: dopamine-β-hydroxylase; assay: Adrenaline content of adrenal gland (dopamine-β-hydroxylase inhibiting effect); type: in vivo, male Wister rats; conditions: rats, i.p., 4 hours; for response vs control in vivo at 100 mg/kg / response vs control in vivo at 200 mg/kg: Rattus norvegicus, ip, ± Standard Error, read-out: Amine level, adrenal gland AD (adrenaline)
Procedure: (§1) The dopamine-β-hydroxylase inhibiting effects of the compounds according to the invention were examined by the following tests:
(§2) The tests were performed on male Wister rats weighing 150 to 200 g. The dopamine-β-hydroxylase inhibiting effects of the compounds were evaluated by determining the change of noradrenaline, dopamine and adrenaline levels of the cerebrum, heart, spleen and adrenal gland. The serotonine and 5-hydroxy-indolyl-acetic acid levels of the cerebrum were also determined. The measurements were performed as follows:
(§3) The animals were decapitated, the cerebrum, heart, spleen and adrenal gland were removed quickly, and the organs were frozen by placing them onto a metal sheet cooled with dry ice. The frozen organs were stored for a maximum of one night at -20° C.
Determination of the adrenaline content of adrenal gland
The adrenal glands were freed from fat and homogenized in 3.0 ml of ice-cold 0.4 N perchloric acid. The homogenized mixtures were centrifuged for 10 minutes at 0° C. with a speed of 3200 r.p.m. on a Janetzky K-70 type centrifuge. 0.05 ml samples were taken from the supernatant, and the adrenaline level was determined directly by the method of Laverty et al (Anal. Biochem., Vol. 22, p. 269, 1968).
(§4) In the tests disulfiram, 2,2-dipyridyl, bis(1-methyl-4-homopiperazinyl-thiocarbonyl)-disulfide, sodium diethyldithiocarbamate and N-phenyl-N'-(2-thiazolyl)-thiourea were used as reference substances. The values indicated in Table 1 are percentages in relation to the amine levels of the controls measured in the same tests (± Standard Error). The statistical calculations were performed on a TPA/i type computer, using Student's test.

[2] = system: dopamine-β-hydroxylase; assay: Noradrenaline content of heart (dopamine-β-hydroxylase inhibiting effect); type: in vivo, male Wister rats; conditions: rats, i.p., 4 hours; for response vs control in vivo at 100 mg/kg / response vs control in vivo at 200 mg/kg: Rattus norvegicus, ip, ± Standard Error, read-out: Amine level, heart NA (noradrenaline)
Procedure: as §1, §2, §3
(§5) Determination of the noradrenaline content of heart and spleen
(§6) The organs were weighed in frozen state and then homogenized in 5.0 ml of 0.4 N perchloric acid containing 0.05% of EDTA-Na2 and 0.1% of Na2 S2 O5. The homogenized mixtures were centrifuged as described above for the treatment of adrenal gland, the supernatants were decanted, and the pH was adjusted to 8.0±0.1 with a 0.1 molar tris buffer containing 20 g/l of NaOH and 25 g/l of EDTA-Na2. 100 mg of prepared Al2 O3 (Anton et al: J. Pharm. Ther., Vol. 138, p. 360, 1962) were added to the samples, and the mixtures were shaken mechanically for 20 minutes. Thereafter the Al2 O3 were washed with 2.10 ml of distilled water, and the noradrenaline was eluted with 1.0 ml of 0.05 N perchloric acid. 0.5 ml samples of the eluate were applied for the determination of noradrenaline.
(§7) Noradrenaline was determined according to the method of Shellenberger et al (Anal. Biochem., Vol. 39, p. 356, 1971), with the following modifications of the basic procedure: 0.5 ml of 0.1 molar Na-K-phosphate buffer, containing 9 g/l of EDTA-Na2, were added to 0.5 ml of the eluate, and the catecholamines (noradrenaline in the examination of heart and spleen and noradrenaline and dopamine in the examination of the cerebrum) were oxidized with 0.1 ml of a 0.1 N iodine solution in 5% potassium iodide. […] Thereafter the samples were placed for 5 minutes in a drying oven heated to 100° C., and then the samples were cooled with ice water. The fluorescence of noradrenaline was measured with an OPTON spectrophotometer at wavelengths of 390 nm (excitation) and 490 nm (emission).
as §4

[3] = system: dopamine-β-hydroxylase; assay: Noradrenaline, dopamine, serotonine and 5-hydroxy-indolylacetic acid contents of cerebrum (dopamine-β-hydroxylase inhibiting effect); type: in vivo, male Wister rats; conditions: rats, i.p., 4 hours; for response vs control in vivo at 100 mg/kg / response vs control in vivo at 200 mg/kg: Rattus norvegicus, ip, ± Standard Error
Procedure: as §1, §2, §3, §7
Determination of the noradrenaline, dopamine, serotonine and 5-hydroxy-indolylacetic acid contents of cerebrum
The brains were homogenized in 10 parts by volume of 0.4 N perchloric acid. The homogenized mixture was stored at -20° C. overnight; thereafter it was thawed and centrifuged as described above. A sample of homogenized mixture corresponding to 0.5 g of brain was removed, the pH of the sample was adjusted to 8.0±0.1 with 0.1 molar tris-buffer of the above composition, and the sample was processed as described above for the determination of the noradrenaline content of heart and spleen, with the difference that 1.5 ml of 0.05 N perchloric acid were applied as eluting agent. 0.5 ml of the eluate were applied to determine the noradrenaline and dopamine content. The measurement was performed as described above, with the difference that samples of 0.5 ml were applied for the recording of the fluorescence of noradrenaline. The residue was placed for 50 minutes into a drying oven heated to 100° C.; thereafter the sample was cooled with ice water, and the fluorescence of dopamine was recorded at wavelengths of 325 nm (excitation) and 380 nm (emission).
In a further test series the serotonine and 5-hydroxy-indolylacetic acid contents were also determined, in addition to the determination of the noradrenaline and dopamine contents, from the same sample. In this instance the brains were homogenized in 10 ml of 75% ethanol, 0.2 ml of EDTA-Na2 and 5% of ascorbic acid were added to the homogenized mixtures, and the homogenized mixtures were maintained at -20° C. overnight. The mixtures were then centrifuged as described above, and 5.0 ml samples of the supernatant were removed. The samples were diluted with equal volumes of distilled water, and poured onto ion-exchange columns of 0.5×1.5 cm dimensions, filled with buffered Amberlite CG-30 (200 to 400 mesh). The columns were washed with 5 ml of distilled water followed with 1.0 ml of 0.2 N hydrochloric acid, and the first effluent and the aqueous wash were collected for the determination of 5-hydroxy-indolylacetic acid. Elution was continued with further 1.2 ml of 0.2 N hydrochloric acid in order to remove noradrenaline, dopamine and serotonine. Samples of 0.3 ml were used for the determinations. […]

[4] = system: dopamine-β-hydroxylase; assay: Noradrenaline content of spleen (dopamine-β-hydroxylase inhibiting effect); type: in vivo, male Wister rats; conditions: rats, i.p., 4 hours; for response vs control in vivo at 100 mg/kg / response vs control in vivo at 200 mg/kg: Rattus norvegicus, ip, ± Standard Error, read-out: Amine level, spleen NA (noradrenaline)
Procedure: as §1, §2, §3, §5, §6, §7, §4

[5] = system: dopamine-β-hydroxylase; conditions: in vitro, in words, prior art; cited from earlier work
[6] = Toxicity (LD50), rats; conditions: rat, in vivo, ip
[7] = in vivo; conditions: mouse, ip
[8] = system: dopamine-β-hydroxylase; conditions: in words, prior art; cited from earlier work
[9] = read-out: Amine level, cerebrum DA (dopamine)
[10] = read-out: Amine level, cerebrum NA (noradrenaline)
[11] = read-out: Amine level, cerebrum SE (serotonine)
[12] = read-out: Level, cerebrum 5-HIAA (5-hydroxy-indolylacetic acid)

Compound	response vs control in vivo at 100 mg/kg [1] [%]	response vs control in vivo at 200 mg/kg [1] [%]	response vs control in vivo at 100 mg/kg [2] [%]	response vs control in vivo at 200 mg/kg [2] [%]	response vs control in vivo at 100 mg/kg [3, 9] [%]	response vs control in vivo at 100 mg/kg [3, 10] [%]	response vs control in vivo at 100 mg/kg [3, 11] [%]	response vs control in vivo at 200 mg/kg [3, 9] [%]	response vs control in vivo at 200 mg/kg [3, 10] [%]	response vs control in vivo at 200 mg/kg [3, 11] [%]	LD50 [7] [mg/kg]	response vs control in vivo at 100 mg/kg [4] [%]	response vs control in vivo at 200 mg/kg [4] [%]	response vs control in vivo at 200 mg/kg [3, 12] [%]	other results
c1ccc(-c2ccccn2)nc1 [2,2-D, 2,2-dipyridyl, reference compound]	–	–	–	–	–	–	–	–	–	–	–	–	–	–	Amine level, adrenal gland AD (adrenaline) ([1]; 37.5 mg/kg): 80 percentages in relation to the controls; Amine level, adrenal gland AD (adrenaline) ([1]; 75 mg/kg): 63 percentages in relation to the controls; Amine level, heart NA (noradrenaline) ([2]; 37.5 mg/kg): 104 percentages in relation to the controls; Amine level, heart NA (noradrenaline) ([2]; 75 mg/kg): 58 percentages in relation to the controls; Amine level, cerebrum DA (dopamine) ([3]; 37.5 mg/kg): 116 percentages in relation to the controls; Amine level, cerebrum NA (noradrenaline) ([3]; 37.5 mg/kg): 79.5 percentages in relation to the controls; Amine level, cerebrum DA (dopamine) ([3]; 75 mg/kg): 95 percentages in relation to the controls; Amine level, cerebrum NA (noradrenaline) ([3]; 75 mg/kg): 41.2 percentages in relation to the controls; Amine level, cerebrum SE (serotonine) ([3]; 75 mg/kg): 100 percentages in relation to the controls; Amine level, spleen NA (noradrenaline) ([4]; 37.5 mg/kg): 100 percentages in relation to the controls; dopamine-β-hydroxylase inhibition in vitro [5]: effective under in vitro conditions; LD50 [6]: 150 mg/kg
C=CCNC1=C(C(=S)S)CCC1 [Compound M-2, 2-(N-allyl)-amino-cyclopent-1-ene-dithiocarboxylic acid]	103 ± 7.6	71.9 ± 4.7	81.3 ± 5.1	123 ± 11.9	108 ± 2.9	78.6 ± 3.3	118 ± 5.7	119 ± 7	71.1 ± 3.9	109 ± 5.9	~500	74.5 ± 10.2	89.9 ± 11	–	–
OCCNC1=C(C(=S)S)CCC1 [Compound M-4, 2-(N-hydroxyethyl)-amino-cyclopent-1-ene-dithiocarboxylic acid]	82.7 ± 4.2	93.4 ± 7.5	85 ± 9.7	75.4 ± 8.3	110 ± 3.5	65.4 ± 4.9	110 ± 3.3	126 ± 2.5	41.6 ± 2	122 ± 10.5	~800	81.4 ± 9.4	98.4 ± 17.1	132 ± 12.6	–
NC(CCCNC1=C(C(=S)S)CCC1)C(=O)O (stereo not drawn) [Compound M-5, 2-[N-(4-carboxy-4-amino)-butyl]-amino-cyclopent-1-ene-dithiocarboxylicacid]	69.4 ± 4	70.7 ± 3.3	98.4 ± 5.4	75 ± 10.6	100 ± 4.8	81.7 ± 4.5	110 ± 4.1	102 ± 1.8	69.3 ± 2.9	114 ± 3.6	~700	76.4 ± 11.1	67.1 ± 6.2	141 ± 10	–
S=C(S)C1=C(NC2CCCCC2)CCC1 [Compound M-6, 2-(N-cyclohexyl)-amino-cyclopent-1-ene-dithiocarboxylic acid]	–	94.9 ± 3.4	–	92.7 ± 6.5	–	–	–	107 ± 5.6	40.7 ± 1.1	101 ± 5.1	> 1000	–	98.1 ± 13.7	150 ± 8.5	–
NC(CCCCNC1=C(C(=S)S)CCC1)C(=O)O (stereo not drawn) [Compound M-7, 2-[N-(5-carboxy-5-amino)-pentyl]-amino-cyclopent-1-ene-dithiocarboxylic ac id]	–	79.5 ± 6.5	–	95.6 ± 8.5	–	–	–	106 ± 7.2	65.8 ± 3	99.7 ± 6.8	~900	–	85.3 ± 17.7	153 ± 13	–
S=C(S)C1=C(Nc2ccccc2)CCC1 [Compound M-8, 2-(N-phenyl)-amino-cyclopent-1-ene-dithiocarboxylic acid]	–	88.4 ± 4.6	–	99.9 ± 2.9	–	–	–	97.3 ± 7.1	75.6 ± 4.6	102 ± 7.9	> 1000	–	71.3 ± 12.8	135 ± 10	–
CN1CCCN(C(=S)SSC(=S)N2CCCN(C)CC2)CC1 [FLA-63, bis(1-methyl-4-homopiperazinyl)-thiocarbonyl-disulfide]	–	–	–	–	–	–	–	–	–	–	–	–	–	–	dopamine-β-hydroxylase inhibition in vivo [8]: one of the most potent dopamine-β-hydroxylase inhibitors in vivo
